Test results as given in ChEMBL document CHEMBL1149997, “Anti-HIV activity of quassinoids” (Bioorg Med Chem Lett, 1996).

Columns and labels:
[1] = tested on: Human immunodeficiency virus 1; assay: Inhibition of HIV-1 replication in H9 lymphocytic cells.; assay type: functional, organism-based; details: Human immunodeficiency virus 1, H9
H9 [2] = assay: Cytotoxicity against H9 lymphocytic cells.; assay type: functional, cell-based; details: Homo sapiens
[3] = Therapeutic index expressed as the ratio of IC50 to EC50.; details: read-out: Therapeutic index
H9 [4] = assay: Compound was tested for inhibitory activity against HIV replication in H9 lymphocytic cells; Toxic at all concentrations; assay type: functional, cell-based, Homo sapiens
H9 [5] = assay: Compound was tested for cytotoxicity against H9 lymphocytic cells; Toxic at all concentrations; assay type: functional, cell-based, Homo sapiens
H9 [6] = assay: Compound was tested for inhibitory activity against HIV replication in H9 lymphocytic cells; No effect; assay type: functional, cell-based, Homo sapiens
[7] = Therapeutic index expressed as the ratio of IC50 to EC50; No effect

Compound: CC(=O)O[C@@H]1C(=O)[C@H](C)[C@@H]2CC(=O)O[C@@H]3C[C@H]4[C@H](C)CC(O)C(=O)[C@]4(C)[C@@H]1[C@@]32C (some centres not stated)
- EC50 [1]: 246 µM
- IC50 (H9 [2]): > 246 µM
- selectivity ratio [3]: > 1

Compound: CC1=CC(=O)[C@@H](O)[C@@]2(C)C1C[C@H]1OC(=O)C[C@H]3[C@H](C)[C@H](O)C(=O)[C@@H]2[C@@]13CO (some centres not stated)
- EC50 [1]: 10.6 µM
- IC50 (H9 [2]): > 264 µM
- selectivity ratio [3]: > 25

Compound: C=C1[C@@H](O)[C@]2(O)OC[C@@]34[C@H]1[C@@H](OC(=O)C(C)(O)CC)C(=O)O[C@@H]3C[C@H]1C(C)=CC(=O)[C@@H](O)[C@]1(C)[C@@H]24 (some centres not stated)
- EC50 (H9 [4]): Toxic at all concentrations
- IC50 (H9 [5]): Toxic at all concentrations

Compound: COC(=O)C(C)[C@@H]1CC(=O)O[C@@H]2C[C@H]3C(C)=CC(=O)[C@@H](O)[C@]3(C)[C@H]3C(=O)OC[C@]321 (some centres not stated) [AILANTINOL A]
- EC50 [1]: 30 µM
- IC50 (H9 [2]): > 246 µM
- selectivity ratio [3]: > 8.2

Compound: C[C@@H]1C[C@H](O)C(=O)[C@]2(C)[C@H]3[C@H](O)C(=O)[C@H](C)[C@@H]4CC(=O)O[C@H](C[C@@H]12)[C@]34C [AMAROLIDE]
- EC50 [1]: 179 µM
- IC50 (H9 [2]): > 275 µM
- selectivity ratio [3]: > 1.5

Compound: COC(=O)[C@@]12OC[C@]34[C@H]([C@@H](O)[C@@H]1O)[C@@]1(C)C=C(O[C@@H]5O[C@H](CO)[C@@H](O)[C@H](O)[C@H]5O)C(=O)[C@@H](C)[C@@H]1C[C@H]3OC(=O)[C@H](OC(=O)C=C(C)C)[C@@H]24 [BRUCEOSIDE A]
- EC50 [1]: 29 µM
- IC50 (H9 [2]): 29 µM
- selectivity ratio [3]: 1

Compound: COC(=O)[C@@]12OC[C@]34[C@H](OC(=O)C[C@@H]13)[C@H](OC(=O)C=C(C)C)[C@H]1C(C)=C(O[C@@H]3O[C@H](CO)[C@@H](O)[C@H](O)[C@H]3O)C(=O)C[C@]1(C)[C@H]4[C@@H](O)[C@@H]2O [BRUCEOSIDE C]
- EC50 (H9 [6]): Not Active
- IC50 (H9 [2]): 44 µM
- Therapeutic index [7]: Not Active

Compound: CC(C)=CC(=O)O[C@H]1C(=O)O[C@@H]2C[C@H]3[C@H](C)C(=O)C(O[C@@H]4O[C@H](CO)[C@@H](O)[C@H](O)[C@H]4O)=C[C@]3(C)[C@H]3[C@@H](O)[C@H](O)[C@]4(C(=O)O)OC[C@]32[C@@H]14 [BRUCEOSIDE D]
- EC50 (H9 [6]): Not Active
- IC50 (H9 [2]): 52 µM
- Therapeutic index [7]: Not Active

Compound: CC(C)CC(=O)O[C@H]1C(=O)O[C@@H]2C[C@H]3[C@H](C)C(=O)C(O[C@@H]4O[C@H](CO)[C@@H](O)[C@H](O)[C@H]4O)=C[C@]3(C)[C@H]3[C@@H](O)[C@H](O)[C@]4(C(=O)O)OC[C@]32[C@@H]14 [BRUCEOSIDE E]
- EC50 [1]: 74 µM
- IC50 (H9 [2]): 59 µM
- selectivity ratio [3]: 0.8

Compound: COC(=O)[C@]12OC[C@]34[C@H]([C@@H](O)[C@@H]1O)[C@@]1(C)C(=O)C(O[C@@H]5O[C@H](CO)[C@@H](O)[C@H](O)[C@H]5O)=C[C@@H](C)[C@@H]1C[C@H]3OC(=O)[C@H](OC(=O)/C=C(\C)C(C)(C)OC(C)=O)[C@@H]24 [Bruceantinoside C]
- EC50 [1]: 46 µM
- IC50 (H9 [2]): 26 µM
- selectivity ratio [3]: 0.6

Compound: COC(=O)[C@]12OC[C@]34[C@H]([C@@H](O)[C@@H]1O)[C@@]1(C)C=C(O[C@@H]5O[C@H](CO)[C@@H](O)[C@H](O)[C@H]5O)C(=O)[C@@H](C)[C@@H]1C[C@H]3OC(=O)[C@H](OC(=O)/C=C(\C)C(C)C)[C@@H]24 [Bruceantinoside-A]
- EC50 (H9 [6]): Not Active
- IC50 (H9 [2]): 4 µM
- Therapeutic index [7]: Not Active

Compound: COC(=O)[C@]12OC[C@]34[C@H]([C@@H](O)[C@@H]1O)[C@@]1(C)CC(=O)C(O[C@@H]5O[C@H](CO)[C@@H](O)[C@H](O)[C@H]5O)=C(C)[C@@H]1C[C@H]3OC(=O)[C@H](OC(=O)C=C(C)C)[C@@H]24 [Bruceoside-B]
- EC50 [1]: 3 µM
- IC50 (H9 [2]): 3 µM
- selectivity ratio [3]: 1

Compound: CC(=O)OC(C)(C)/C(C)=C/C(=O)O[C@H]1C(=O)O[C@@H]2C[C@H]3[C@H](C)C(=O)C(O[C@@H]4O[C@H](CO)[C@@H](O)[C@H](O)[C@H]4O)=C[C@]3(C)[C@H]3[C@@H](O)[C@H](O)[C@@]4(C(=O)O)OC[C@]32[C@@H]14 [Bruceoside-F]
- EC50 [1]: 112 µM
- IC50 (H9 [2]): > 132 µM
- selectivity ratio [3]: > 1.2

Compound: CC1=CC(=O)[C@@H](O)[C@]2(C)[C@H]3[C@@]4(O)C(=O)OC[C@@]35[C@@H](C[C@@H]12)OC(=O)C[C@H]5[C@H]4C [SHINJUDILACTONE]
- EC50 [1]: 43 µM
- IC50 (H9 [2]): > 266 µM
- selectivity ratio [3]: > 6.2

Compound: C=C1[C@H](O)[C@]2(O)OC[C@]34[C@H]2[C@@]2(C)[C@H](O)[C@@H](O)C=C(C)[C@@H]2C[C@H]3OC(=O)C[C@@H]14 [SHINJULACTONE A]
- EC50 [1]: 5 µM
- IC50 (H9 [2]): 5 µM
- selectivity ratio [3]: 1

Compound: COC(=O)[C@]12OC[C@]34[C@H]([C@@H](O)[C@@H]1O)[C@@]1(C)C=C(O[C@@H]5O[C@H](CO)[C@@H](O)[C@H](O)[C@H]5O)C(=O)[C@@H](C)[C@@H]1C[C@H]3OC(=O)[C@H](OC(=O)/C=C(\C)C(C)(C)O)[C@@H]24 [YADANZIOSIDE C]
- EC50 (H9 [6]): Not Active
- IC50 (H9 [2]): 55 µM
- Therapeutic index [7]: Not Active

Compound: COC(=O)[C@]12OC[C@]34[C@H]([C@@H](O)[C@@H]1O)[C@@]1(C)C=C(O[C@@H]5O[C@H](CO)[C@@H](O)[C@H](O)[C@H]5O)C(=O)[C@@H](C)[C@@H]1C[C@H]3OC(=O)[C@H](OC(C)=O)[C@@H]24 [YADANZIOSIDE F]
- EC50 [1]: 109 µM
- IC50 (H9 [2]): 156 µM
- selectivity ratio [3]: 1.4

Compound: COC(=O)[C@@]12OC[C@]34[C@H]([C@@H](O)[C@@H]1O)[C@@]1(C)C=C(O[C@@H]5O[C@H](CO)[C@@H](O)[C@H](O)[C@H]5O)C(=O)[C@@H](C)[C@@H]1C[C@H]3OC(=O)[C@H](OC(=O)c1ccccc1)[C@@H]24 [YADANZIOSIDE-M]
- EC50 (H9 [6]): Not Active
- IC50 (H9 [2]): 7 µM
- Therapeutic index [7]: Not Active

Compound: COC(=O)[C@]12OC[C@]34[C@H]([C@@H](O)[C@@H]1O)[C@@]1(C)C=C(O[C@@H]5O[C@H](CO)[C@@H](O)[C@H](O)[C@H]5O)C(=O)[C@@H](C)[C@@H]1C[C@H]3OC(=O)[C@H](OC(=O)CC(C)C)[C@@H]24 [Yadanzioside A]
- EC50 [1]: 110 µM
- IC50 (H9 [2]): 146 µM
- selectivity ratio [3]: 1.3

Compound: COC(=O)[C@]12OC[C@]34[C@H]([C@@H](O)[C@@H]1O)[C@@]1(C)CC(=O)C(O[C@@H]5O[C@H](CO)[C@@H](O)[C@H](O)[C@H]5O)=C(C)[C@@H]1C[C@H]3OC(=O)[C@H](OC(=O)CC(C)C)[C@@H]24 [Yadanzioside B]
- EC50 [1]: 5 µM
- IC50 (H9 [2]): 4 µM
- selectivity ratio [3]: 0.8

Compound: COC(=O)[C@]12OC[C@]34[C@H]([C@@H](O)[C@@H]1O)[C@@]1(C)[C@H](O)[C@H](O[C@@H]5O[C@H](CO)[C@@H](O)[C@H](O)[C@H]5O)C=C(C)[C@@H]1C[C@H]3OC(=O)[C@H](OC(=O)C=C(C)C)[C@@H]24 [Yadanzioside E]
- EC50 (H9 [6]): Not Active
- IC50 (H9 [2]): 29 µM
- Therapeutic index [7]: Not Active

Compound: COC(=O)[C@]12OC[C@]34[C@H]([C@@H](O)[C@@H]1O)[C@@]1(C)C=C(O[C@@H]5O[C@H](CO)[C@@H](O)[C@H](O)[C@H]5O)C(=O)[C@@H](C)[C@@H]1C[C@H]3OC(=O)[C@H](OC(=O)/C=C(\C)C(C)(C)OC(C)=O)[C@@H]24 [Yadanzioside G]
- EC50 [1]: 23 µM
- IC50 (H9 [2]): 37 µM
- selectivity ratio [3]: 1.6

Compound: COC(=O)[C@]12OC[C@]34[C@H]([C@@H](O)[C@@H]1O)[C@@]1(C)CC(=O)C(O[C@@H]5O[C@H](CO)[C@@H](O)[C@H](O)[C@H]5O)=C(C)[C@@H]1C[C@H]3OC(=O)[C@H](OC(=O)/C=C(\C)C(C)(C)O)[C@@H]24 [Yadanzioside L]
- EC50 [1]: 5 µM
- IC50 (H9 [2]): 10 µM
- selectivity ratio [3]: 2

Compound: COC(=O)[C@]12OC[C@]34[C@H]([C@@H](O)[C@@H]1O)[C@@]1(C)C(=O)C(O[C@@H]5O[C@H](CO)[C@@H](O)[C@H](O)[C@H]5O)=C[C@@H](C)[C@@H]1C[C@H]3OC(=O)[C@H](OC(=O)/C=C(\C)C(C)C)[C@@H]24 [Yadanzioside N]
- EC50 (H9 [6]): Not Active
- IC50 (H9 [2]): 49 µM
- Therapeutic index [7]: Not Active

Compound: COC(=O)[C@]12OC[C@]34[C@H]([C@@H](O)[C@@H]1O)[C@@]1(C)CC(=O)C(O[C@@H]5O[C@H](CO)[C@@H](O)[C@H](O)[C@H]5O)=C(C)[C@@H]1C[C@H]3OC(=O)[C@H](OC(=O)/C=C(\C)C(C)C)[C@@H]24 [Yadanzioside P]
- EC50 [1]: 18 µM
- IC50 (H9 [2]): 18 µM
- selectivity ratio [3]: 1

Compound: Nc1ccn([C@H]2CC[C@@H](CO)O2)c(=O)n1 [ZALCITABINE]
- EC50 [1]: 0.03 µM
- IC50 (H9 [2]): 500 µM
- selectivity ratio [3]: 16700
